Data taken from patent US8501713B2, “Drug combinations for the treatment of duchenne muscular dystrophy” (Summit Corporation PLC, priority 2007, dated 2013).

Tested on: Utrophin A promoter linked to a luciferase reporter gene
Assay: Luciferase reporter assay (murine H2K cells)
Type: cell-based
Details: Mus musculus, H2K mdx, luciferase level relative to control; H2K/mdx/Utro A reporter cells; compound 10 μM final concentration; read-out: Activity
Experimental: 1. Luciferase Reporter Assay (Murine H2K Cells)
The cell line used for the screen is an immortalized mdx mouse H2K cell line that has been stably transfected with a plasmid containing […] fragment of the Utrophin A promoter including the first untranslated exon linked to a luciferase reporter gene. Under conditions of low temperature and interferon containing media, the cells remain as myoblasts. These are plated into 96 well plates and cultured in the presence of compound for three days. The level of luciferase is then determined by cell lysis and reading of the light output from the expressed luciferase gene utilising a plate luminometer.
H2K/mdx/Utro A reporter Cell Line Maintenance
The cells were grown at 33° C. in the presence of 10% CO2. To remove the myoblasts for platting, they were incubated with Trypsin EDTA until the monolayer started to detach.
The plates were then incubated at 33° C. in the presence of 10% CO2 for 24 hrs. Compounds were dosed by adding 10 μl of diluted compound to each well giving a final concentration of 10 μM. The plates were then incubated for a further 48 hrs. Cells were then lysed in situ following the manufacture's protocols (Promega Steady-Glo Luciferase Assay System (E2520). Then counted for 10 seconds using a plate luminometer (Victor1420).
Compounds for screening were stored at −20° C. as 10 mM stocks in 100% DMSO until required.
Biological activity as assessed using the luciferase reporter assay in murine H2K cells, and is classified as follows: […]

Structure (SMILES) | activity at 10 µM [%]
O=C(Cc1ccccc1)Nc1ccc2oc(-c3cccnc3)nc2c1 [Example 50, 2-phenyl-N-(2-(pyridin-3-yl)benzo[d]oxazol-5-yl)acetamide] | < 200
O=C(CCc1ccccc1)Nc1ccc2oc(-c3cccnc3)nc2c1 [Example 51, 3-phenyl-N-(2-(pyridin-3-yl)benzo[d]oxazol-5-yl)propanamide] | < 200
O=C(C=Cc1ccccc1)Nc1ccc2oc(-c3cccnc3)nc2c1 [Example 52, N-(2-(pyridin-3-yl)benzo[d]oxazol-5-yl)cinnamamide] | < 200
CCC(=O)Nc1ccc2oc(-c3cccnc3)nc2c1 [Example 53, N-(2-(pyridin-3-yl)benzo[d]oxazol-5-yl)propionamide] | < 200
CCCC(=O)Nc1ccc2oc(-c3cccnc3)nc2c1 [Example 54, N-(2-(pyridin-3-yl)benzo[d]oxazol-5-yl)butyramide] | < 200
CCCCC(=O)Nc1ccc2oc(-c3cccnc3)nc2c1 [Example 55, N-(2-(pyridin-3-yl)benzo[d]oxazol-5-yl)pentanamide] | < 200
CC(C)C(=O)Nc1ccc2oc(-c3cccnc3)nc2c1 [Example 56, N-(2-(pyridin-3-yl)benzo[d]oxazol-5-yl)isobutyramide] | 201 to 300
O=C(Nc1ccc2oc(-c3cccnc3)nc2c1)c1ccco1 [Example 57, N-(2-(pyridin-3-yl)benzo[d]oxazol-5-yl)furan-2-carboxamide] | < 200
O=C(Nc1ccc2oc(-c3ccccc3)nc2c1)c1ccccc1 [Example 59, N-(2-phenylbenzo[d]oxazol-5-yl)benzamide] | 201 to 300
CCN(CC)c1ccc(-c2nc3cc(NC(=O)c4cccnc4)ccc3o2)cc1 [Example 60, N-(2-(4-(diethylamino)phenyl)benzo[d]oxazol-5-yl)nicotinamide] | 201 to 300
CCN(CC)c1ccc(-c2nc3cc(NC(=O)c4ccncc4)ccc3o2)cc1 [Example 61, N-(2-(4-(diethylamino)phenyl)benzo[d]oxazol-5-yl)isonicotinamide] | < 200
CCN(CC)c1ccc(-c2nc3cc(NC(=O)c4ccccc4)ccc3o2)cc1 [Example 62, N-(2-(4-(diethylamino)phenyl)benzo[d]oxazol-5-yl)benzamide] | < 200
CCN(CC)c1ccc(-c2nc3cc(NC(=O)c4ccc(Cl)cc4)ccc3o2)cc1 [Example 63, 4-chloro-N-(2-(4-(diethylamino)phenyl)benzo[d]oxazol-5-yl)benzamide] | < 200
CCN(CC)c1ccc(-c2nc3cc(NC(=O)c4ccc(C)cc4)ccc3o2)cc1 [Example 64, N-(2-(4-(diethylamino)phenyl)benzo[d]oxazol-5-yl)-4-methylbenzamide] | < 200
CCN(CC)c1ccc(-c2nc3cc(NC(=O)c4ccc(OC)cc4)ccc3o2)cc1 [Example 65, N-(2-(4-(diethylamino)phenyl)benzo[d]oxazol-5-yl)-4-methoxybenzamide] | < 200
CCN(CC)c1ccc(-c2nc3cc(NC(=O)c4ccccc4OC)ccc3o2)cc1 [Example 66, N-(2-(4-(diethylamino)phenyl)benzo[d]oxazol-5-yl)-2-methoxybenzamide] | < 200
CCN(CC)c1ccc(-c2nc3cc(NC(=O)c4ccc(N(C)C)cc4)ccc3o2)cc1 [Example 67, N-(2-(4-(diethylamino)phenyl)benzo[d]oxazol-5-yl)-4-(dimethylamino)benzamide] | 201 to 300
CCN(CC)c1ccc(-c2nc3cc(NC(=O)c4ccc(Cl)c(Cl)c4)ccc3o2)cc1 [Example 68, 3,4-dichloro-N-(2-(4-(diethylamino)phenyl)benzo[d]oxazol-5-yl)benzamide] | < 200
CCN(CC)c1ccc(-c2nc3cc(NC(=O)c4ccc(C(F)(F)F)cc4)ccc3o2)cc1 [Example 69, N-(2-(4-(diethylamino)phenyl)benzo[d]oxazol-5-yl)-4-(trifluoromethyl)benzamide] | < 200
